Series [1] can be described thus: Neurotoxicity assay: MTS viability of primary cortical neuronal cultures. It counts as cell-based, mouse. The note with it: BL6Jx129sv, mouse, primary cortical neuronal cultures, Neuronal cells, read-out: Cytotoxicity (% viable at 1 and 10 uM); for viability at 4 days, 1 uM: test compound 1 uM; for viability at 4 days, 10 uM: test compound 10 uM. On the procedure:
Media was then replaced with Neurobasal media (Invitrogen Life Technologies) and B27 supplements (Invitrogen Life Technologies). Cultures were maintained at 37° C. in 5% CO2. Prior to experimentation, the culture medium was replaced with Neurobasal media and B27 minus antioxidants (Invitrogen Life Technologies).
Cell viability is determined using the MTS assay. Culture medium is replaced with fresh neurobasal medium plus B27 supplements minus antioxidants. 1/10th volume MTS solution (Cell Titre 96 Aqueous One, Promega Corporation) and incubated at 37° C., 2 hrs. 200 microlitre aliquots are measured with a spectrophotometer at 560 nm.
Neuronal cortical cells were cultured for five days as per Assay 2 in NB media and B27 supplement.
On day six the test compounds were added to the neuronal cell cultures in NB media and B27 supplement minus antioxidants.
Test compounds were dissolved in 100% DMSO to a concentration of 2.5 mM (10 mM if excess compound was weighed out per vial—then diluted to 2.5 mM). […] Test compounds were not added directly to cells, instead they were added to a 48 well ‘Drug Plate’ as comprised below:
The Drug Plate was incubated at 37° C. for 15 mins. 200 μl of each well was added in triplicate to the corresponding cell plate. The cell plate was incubated at 37 C, for 4 days.
On completion of the assay, 1/10 volume MTS was added per well of plate (i.e. 25 μl/250 μl). The plates were incubated at 37 C for 2 hrs, and then absorbance was read at 560 nm.

Series [2] in a line: Cytotoxicity: viability of M17 cells. The note with it: human, M17 neuroblastoma cells, Cytotoxicity (% viable at 1 and 10 uM); for viability at 1 uM: test compound 1 uM; for viability at 10 uM: test compound 10 uM.

The structures appear in SMILES notation.

As to `O=S(=O)(O)c1cc(I)c(O)c2ncccc12`, in series [1], the viability at 4 days, 1 uM was found to be 70% and the viability at 4 days, 10 uM is 71%.

As for `Oc1c(-c2ccccc2)cc(-c2ccccc2)c2cccnc12`, in series [1], the viability at 4 days, 1 uM was 97% and the viability at 4 days, 10 uM stood at 26%.

Regarding `COc1cccc(-c2cc(Cl)c3cccnc3c2O)c1`, in series [1], the viability at 4 days, 1 uM was 83% and the viability at 4 days, 10 uM is 71%.

For the molecule `O=[N+]([O-])c1cccc(-c2cc(Cl)c3cccnc3c2O)c1`, in series [1], the viability at 4 days, 1 uM came to 92% and the viability at 4 days, 10 uM was determined as 78%.

Take `Oc1c(-c2ccc(F)cc2)cc(Cl)c2cccnc12`: in series [1], the viability at 4 days, 1 uM is 103% and the viability at 4 days, 10 uM was determined as 75%.

With `Oc1c(-c2cc(F)cc(F)c2)cc(Cl)c2cccnc12`, in series [1], the viability at 4 days, 1 uM was 90% and the viability at 4 days, 10 uM stood at 66%.

Turning to `COc1ccc(-c2cc(Cl)c3cccnc3c2O)cc1`, in series [1], the viability at 4 days, 1 uM was found to be 97% and the viability at 4 days, 10 uM worked out at 31%.

With `Oc1c(-c2ccccc2F)cc(Cl)c2cccnc12`, in series [1], the viability at 4 days, 1 uM is 96% and the viability at 4 days, 10 uM came to 54%.

As to `O=Cc1ccccc1-c1cc(Cl)c2cccnc2c1O`, in series [1], the viability at 4 days, 1 uM turned out to be 109% and the viability at 4 days, 10 uM worked out at 99%.

Take `Oc1c(-c2cccc(F)c2)cc(Cl)c2cccnc12`: in series [1], the viability at 4 days, 1 uM stood at 98% and the viability at 4 days, 10 uM worked out at 71%.

`CN(C)c1ccc(-c2cc(Cl)c3cccnc3c2O)cc1`: in series [1], the viability at 4 days, 1 uM was 94% and the viability at 4 days, 10 uM is 85%.

Turning to `Cc1ccccc1-c1cc(-c2ccccc2C)c2cccnc2c1O`, in series [1], the viability at 4 days, 1 uM was 93% and the viability at 4 days, 10 uM came out at 34%.

For `Oc1c(Br)cc(-c2cc(F)cc(F)c2)c2cccnc12`, in series [1], the viability at 4 days, 1 uM is 95% and the viability at 4 days, 10 uM was found to be 95%.

Consider `Cc1ccccc1-c1cc(Cl)c2cccnc2c1O`, for which, in series [1], the viability at 4 days, 1 uM worked out at 100% and the viability at 4 days, 10 uM was determined as 100%.

As to `Cc1cccc(-c2cc(Cl)c3cccnc3c2O)c1`, in series [1], the viability at 4 days, 1 uM turned out to be 98% and the viability at 4 days, 10 uM turned out to be 73%.

On to `Oc1c(I)cc(-c2ccccc2C(F)(F)F)c2cccnc12`, for which, in series [1], the viability at 4 days, 1 uM worked out at 91% and the viability at 4 days, 10 uM was determined as 90%.

As for `Cc1ccccc1-c1cc(I)c(O)c2ncccc12`, in series [1], the viability at 4 days, 1 uM came out at 99% and the viability at 4 days, 10 uM turned out to be 38%.

On to `COc1ccccc1-c1cc(-c2ccccc2OC)c2cccnc2c1O`, for which, in series [1], the viability at 4 days, 1 uM worked out at 100% and the viability at 4 days, 10 uM was 52%.

Regarding `COc1ccccc1-c1cc(I)c(O)c2ncccc12`, in series [1], the viability at 4 days, 1 uM amounted to 91% and the viability at 4 days, 10 uM is 35%.

Regarding `Oc1c(-c2ccccc2C(F)(F)F)cc(Cl)c2cccnc12`, in series [1], the viability at 4 days, 1 uM worked out at 96% and the viability at 4 days, 10 uM worked out at 93%.

`Oc1c(I)cc(-c2ccccc2F)c2cccnc12`: in series [1], the viability at 4 days, 1 uM came out at 92% and the viability at 4 days, 10 uM was determined as 34%.

As for `Oc1ccccc1-c1cc(Cl)c2cccnc2c1O`, in series [1], the viability at 4 days, 1 uM worked out at 100% and the viability at 4 days, 10 uM was determined as 70%.

For the molecule `O=C(NCCc1c[nH]cn1)c1ccc2cccc(O)c2n1`, in series [1], the viability at 4 days, 1 uM turned out to be 100% and the viability at 4 days, 10 uM was 100%.

For `O=C(NCc1ccccn1)c1ccc2cccc(O)c2n1`, in series [1], the viability at 4 days, 1 uM turned out to be 96% and the viability at 4 days, 10 uM was 85%.

As to `O=C(NCCc1ccccn1)c1ccc2cccc(O)c2n1`, in series [1], the viability at 4 days, 1 uM is 95% and the viability at 4 days, 10 uM was 93%.

Regarding `O=C(Nc1ccccc1O)c1ccc2cccc(O)c2n1`, in series [1], the viability at 4 days, 1 uM stood at 104% and the viability at 4 days, 10 uM was 92%.

`O=C(Nc1nccs1)c1ccc2cccc(O)c2n1`: in series [1], the viability at 4 days, 1 uM amounted to 100% and the viability at 4 days, 10 uM was 100%.

Regarding `Cc1cnc(NC(=O)c2ccc3cccc(O)c3n2)s1`, in series [1], the viability at 4 days, 1 uM was 94% and the viability at 4 days, 10 uM came to 68%.

Turning to `O=c1c2cccc(O)c2ncn1Cc1ccccn1`, in series [2], the viability at 1 uM is 109% and the viability at 10 uM came out at 96%.

Turning to `O=c1c2cccc(O)c2ncn1CC1CC1`, in series [2], the viability at 1 uM turned out to be 104% and the viability at 10 uM is 111%.

`CCc1cnc2c(O)cccn2c1=O`: in series [2], the viability at 1 uM amounted to 96.1% and the viability at 10 uM came to 27.1%.

Regarding `CCn1cnc2c(O)ccc(Cl)c2c1=O`, in series [2], the viability at 1 uM is 101% and the viability at 10 uM is 85.4%.

Take `CCCn1cnc2c(O)ccc(Cl)c2c1=O`: in series [2], the viability at 1 uM was found to be 89.4% and the viability at 10 uM was 79.4%.

Consider `O=c1c2c(Cl)ccc(O)c2ncn1CC1CC1`, for which, in series [2], the viability at 1 uM stood at 86.3% and the viability at 10 uM turned out to be 57.6%.

`O=c1c2c(Cl)ccc(O)c2ncn1Cc1ccccn1`: in series [2], the viability at 1 uM is 93.6% and the viability at 10 uM was found to be 88.4%.

As to `O=c1c2c(Cl)cc(I)c(O)c2ncn1Cc1ccccn1`, in series [2], the viability at 1 uM was found to be 102% and the viability at 10 uM came to 99.2%.

For `CCc1cnc2c(O)cccn2c1=S`, in series [2], the viability at 1 uM came to 93.3% and the viability at 10 uM was 73.7%.

In the case of `O=C(NCc1ccc(F)cc1)c1cnc2c(O)cccn2c1=O`, in series [2], the viability at 1 uM was 76.7% and the viability at 10 uM was determined as 54.2%.

Consider `O=c1c2cccc(O)c2ncn1-c1ccc(F)cc1`, for which, in series [2], the viability at 1 uM stood at 92.7% and the viability at 10 uM was 67.5%.

Regarding `CCCCNC(=O)c1cnc2c(O)cccn2c1=O`, in series [2], the viability at 1 uM was determined as 98.8% and the viability at 10 uM was determined as 48.4%.

For `O=c1c2ccc(I)c(O)c2ncn1-c1ccc(F)cc1`, in series [2], the viability at 1 uM was 94.6% and the viability at 10 uM amounted to 30.2%.

In the case of `CCN(CC)CCn1cnc2c(O)c(I)ccc2c1=O`, in series [2], the viability at 1 uM stood at 106% and the viability at 10 uM is 41.4%.

Take `O=c1c2c(Cl)cc(I)c(O)c2ncn1-c1cccnc1`: in series [2], the viability at 1 uM turned out to be 97.4% and the viability at 10 uM was found to be 95%.

As to `CCCNC(=O)Cn1cnc2c(O)c(I)ccc2c1=O`, in series [2], the viability at 1 uM is 84.3% and the viability at 10 uM came out at 95.5%.

`CCN(CC)C(=O)Cn1cnc2c(O)c(I)ccc2c1=O`: in series [2], the viability at 1 uM came to 92.2% and the viability at 10 uM came out at 98.7%.

For `O=C1c2ccccc2C(=O)N1CCn1cnc2c(O)c(I)ccc2c1=O`, in series [2], the viability at 1 uM is 127% and the viability at 10 uM amounted to 105%.

Regarding `O=C(Nc1nc2ccc(F)cc2s1)c1cnc2c(O)cccn2c1=O`, in series [2], the viability at 1 uM came out at 60.1% and the viability at 10 uM came out at 34.2%.

With `CCCCCn1cnc2c(O)c(I)ccc2c1=O`, in series [2], the viability at 1 uM is 86.3% and the viability at 10 uM came out at 38.5%.

On to `O=C(Cn1cnc2c(O)cccc2c1=O)Nc1ccccn1`, for which, in series [2], the viability at 1 uM was 110% and the viability at 10 uM worked out at 98.2%.

As to `CCC(C)Cn1cnc2c(O)cccc2c1=O` (centres unmarked), in series [2], the viability at 1 uM came to 103% and the viability at 10 uM amounted to 47.2%.

As to `O=C1c2ccccc2C(=O)N1CCn1cnc2c(O)cccc2c1=O`, in series [2], the viability at 1 uM came to 104% and the viability at 10 uM was determined as 106%.

Turning to `CCC(C)Cn1cnc2c(O)c(I)ccc2c1=O` (centres unmarked), in series [2], the viability at 1 uM stood at 42.8% and the viability at 10 uM was 19.3%.

As for `CCN(CC)C(=O)Cn1cnc2c(O)cccc2c1=O`, in series [2], the viability at 1 uM stood at 118% and the viability at 10 uM turned out to be 102%.

Take `O=C(Nc1cnc2ccccc2c1)c1cnc2c(O)cccn2c1=O`: in series [2], the viability at 1 uM turned out to be 102% and the viability at 10 uM is 32.8%.

Regarding `CCN(CC)CCNC(=O)c1cnc2c(O)cccn2c1=O`, in series [2], the viability at 1 uM came to 115% and the viability at 10 uM came out at 103%.

For the molecule `CCCCCn1cnc2c(O)c(Cl)cc(Cl)c2c1=O`, in series [2], the viability at 1 uM is 81.3% and the viability at 10 uM is 56.8%.

Take `CCC(C)Cn1cnc2c(O)c(Cl)cc(Cl)c2c1=O` (centres unmarked): in series [2], the viability at 1 uM came to 85.1% and the viability at 10 uM was determined as 39.4%.

On to `O=c1c2cccc(O)c2ncn1-c1nc2ccc(F)cc2s1`, for which, in series [2], the viability at 1 uM worked out at 99.1% and the viability at 10 uM was found to be 73.7%.

For `O=c1c2cccc(O)c2ncn1-c1ccc(F)cc1F`, in series [2], the viability at 1 uM was found to be 104% and the viability at 10 uM turned out to be 104%.

`O=C(Nc1ccc(F)cc1F)c1cnc2c(O)cccn2c1=O`: in series [2], the viability at 1 uM was determined as 99.4% and the viability at 10 uM was 67.1%.

Regarding `O=c1c2cccc(O)c2ncn1Cc1ccccc1`, in series [2], the viability at 1 uM turned out to be 98.5% and the viability at 10 uM worked out at 90.4%.

Consider `O=c1c2cccc(O)c2ncn1Cc1nc2ccccc2[nH]1`, for which, in series [2], the viability at 1 uM is 107% and the viability at 10 uM worked out at 108%.

`O=c1c2ccc(I)c(O)c2ncn1CCNS(=O)(=O)c1ccc(F)cc1`: in series [2], the viability at 1 uM amounted to 96.5% and the viability at 10 uM worked out at 43%.

For the molecule `CCCS(=O)(=O)NCCn1cnc2c(O)c(I)ccc2c1=O`, in series [2], the viability at 1 uM is 104% and the viability at 10 uM was 98.6%.
